From US20120190707A1, “SELECTIVE INHIBITORS OF AKT AND METHODS OF USING SAME” (priority 2008, published 2012) come the findings set out here.

For test [1], the target named is p38.alpha (Homo sapiens, UniProt Q16539). In words: Activity of other protein kinases: p38.alpha. Format: biochemical. As to conditions: 100 micro.M.
Test [2] has as its system NF-kB pathway. Kind of test: TNF-α stimulated NF-kB pathway (IKK, IkB) western analysis in UACC903 cells. As to conditions: 10 μM for 1 h prior to 20 ng/ml TNF-α. Format: cell-based, human. How it is done:
UACC903 melanoma cells were exposed to 10 μM BI-69A11 or vehicle control for 1 h prior to treatment with 20 ng/ml TNF-α. Cells were harvested at the indicated time points and whole cell lysates were subjected to western analysis for phosphorylated IKK, total IKK, phosphorylated IkB, total IkB, and PLCγ (as loading control).
FIG. 11 describes how selected BI-69A11 analogs inhibit the NFkB pathway. UACC903 melanoma cells were exposed to vehicle control, 10 μM BI-69A11, or 10 μM analog for 1 h prior to stimulation with 20 ng/ml TNF-α as indicated. Cells were harvested at 5 min post-stimulation and whole cell lysates were subjected to western analysis for phosphorylated IKK, total IKK, phosphorylated IkB, total IkB, and […] (as loading control).
We first tested whether BI-69A11 inhibited the activation of the canonical NF-kB pathway (FIG. 10) in intact cells. […] In contrast, in cells treated with BI-69A11, both IKK and IkB phosphorylation were inhibited in response to TNF-a stimulation. Furthermore, the degradation of IkB protein was inhibited.
We next tested the ability of selected BI-69A11 analogs to inhibit the NF-kB pathway (FIG. 11). In this experiment, UACC903 cells were treated with vehicle, BI-69A11 or analog, stimulated with TNF-a, and harvested at 5 minutes post-stimulation. […]

Test [3] deals with c-Jun. In words: Levels of HSP90 client protein c-Jun. As to conditions: data not shown. It is filed as cell-based. The text has this: Among cellular proteins implicated in the regulation of AKT levels is the cellular chaperone HSP90. Inhibition of HSP90 chaperone function, as commonly achieved by the geldanamycin antibiotic, interferes with the conformational maturation and refolding of its associated proteins, thereby promoting their degradation (Munster et al., 2002; Neckers and Neckers, 2003). […] Thus we assessed whether association of AKT with HSP90 could be affected by BI-69A11. Immunoprecipitation of AKT from melanoma cells identified HSP90 in the immunoprecipitated material. Such association was however abolished following treatment with the BI-69A11 inhibitor (FIG. 6C). […] To this end, we also performed the experiment in the presence of the proteasome inhibitor MG132.

p38.alpha, sequence (Q16539 whole entry): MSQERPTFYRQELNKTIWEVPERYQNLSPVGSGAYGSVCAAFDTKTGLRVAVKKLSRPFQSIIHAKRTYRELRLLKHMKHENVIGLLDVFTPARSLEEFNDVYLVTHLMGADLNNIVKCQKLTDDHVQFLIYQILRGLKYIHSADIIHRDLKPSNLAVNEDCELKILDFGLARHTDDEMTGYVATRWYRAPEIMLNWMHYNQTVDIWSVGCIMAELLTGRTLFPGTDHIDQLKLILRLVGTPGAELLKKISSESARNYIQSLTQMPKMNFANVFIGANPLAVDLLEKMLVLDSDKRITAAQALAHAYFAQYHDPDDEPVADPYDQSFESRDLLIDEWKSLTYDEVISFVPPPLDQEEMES

As for `O=C(/C=C/c1nc2ccccc2[nH]1)c1c(O)nc2ccc(Cl)cc2c1-c1ccccc1` [Compound 2, (E)-3-(3-(1H-benzo[d]imidazol-2-yl)acryloyl)-6-chloro-4-phenylquinolin-2(1H)-one], the “effect on p38.alpha activity” value in test [1] was “did not affect”. Further, the “degradation of IkB protein” value in test [2] is “inhibited”. The “IKK and IkB phosphorylation in response to TNF-a stimulation” value in test [2] (time course) is recorded as “inhibited”. In addition, the c-Jun protein levels result in test [3] is given as “did not affect”.
